Results reported in ChEMBL document CHEMBL1131346, “A free energy calculation can be used to predict K(+)-binding constants for new macrotetrolide antibiotics” (Bioorg Med Chem Lett, 1998).

Test: Compound was evaluated for K+ ion binding affinity to macrocycle of macrotetrolides

SMILES | Log K
CC[C@H]1C[C@@H]2CC[C@@H](O2)[C@@H](C)C(=O)O[C@H](C)C[C@H]2CC[C@H](O2)[C@H](C)C(=O)O[C@@H](C)C[C@@H]2CC[C@@H](O2)[C@@H](C)C(=O)O[C@H](C)C[C@H]2CC[C@H](O2)[C@H](C)C(=O)O1 | 4.4
C[C@@H]1C[C@H]2CC[C@H](O2)[C@H](C)C(=O)O[C@@H](C)C[C@@H]2CC[C@@H](O2)[C@@H](C)C(=O)O[C@H](C)C[C@H]2CC[C@@H](O2)[C@H](C)C(=O)O[C@@H](C)C[C@@H]2CC[C@@H](O2)[C@@H](C)C(=O)O1 | 3.88
CC[C@H]1C[C@@H]2CC[C@@H](O2)[C@@H](C)C(=O)O[C@H](C)C[C@H]2CC[C@H](O2)[C@H](C)C(=O)O[C@@H](CC)C[C@@H]2CC[C@@H](O2)[C@@H](C)C(=O)O[C@H](C)C[C@H]2CC[C@H](O2)[C@H](C)C(=O)O1 | 4.73
